Measured values as given in the supplement of paper PMC10307832.

Columns and labels:
Test in all cases: relative viability (nuclei count vs DMSO), 5 days (fraction); higher = more cells survive
PC-14 = system: PC-14
In short: (§1)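 Nuclei were stained with Hoechst during a one-step fixation (final 0.05% Triton X-100, 1% formaldehyde, 1 ug/ml Hoechst) carried out 5 days after dosing, then counted on 4× images. The cells, lung cancer lines in 1536-well plates, had been dosed by pin tool the day after seeding with one drug alone or a fixed anchor-drug dose plus five library-drug doses (not always all listed) in √10 steps. Relative viability is the nuclei count in treated wells divided by that in vehicle wells, and each value is the median of duplicate plates.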

NCI-H1915 = system: NCI-H1915
In short: as §1

NCI-H647 = system: NCI-H647
In short: as §1

NCI-H520 = system: NCI-H520
In short: as §1

EPLC-272H = system: EPLC-272H
In short: as §1

COR-L 105 = system: COR-L 105
In short: as §1

H3255 = system: H3255
In short: as §1

HCC-78 = system: HCC-78
In short: as §1

LC-2-ad = system: LC-2-ad
In short: as §1

201T = system: 201T
In short: as §1

HCC-827 = system: HCC-827
In short: as §1

NCI-H23 = system: NCI-H23
In short: as §1

ChaGo-K-1 = system: ChaGo-K-1
In short: as §1

NCI-H2405 = system: NCI-H2405
In short: as §1

RERF-LC-KJ = system: RERF-LC-KJ
In short: as §1

NCI-H2347 = system: NCI-H2347
In short: as §1

NCI-H661 = system: NCI-H661
In short: as §1

NCI-H2126 = system: NCI-H2126
In short: as §1

LCLC-97TM1 = system: LCLC-97TM1
In short: as §1

NCI-H650 = system: NCI-H650
In short: as §1

NCI-H2087 = system: NCI-H2087
In short: as §1

NCI-H1666 = system: NCI-H1666
In short: as §1

COc1nc(C)cnc1NS(=O)(=O)c1cccnc1-c1ccc(-c2nnco2)cc1 [Zibotentan] + CC(=O)Nc1cccc(-n2c(=O)n(C3CC3)c(=O)c3c(Nc4ccc(I)cc4F)n(C)c(=O)c(C)c32)c1 [Trametinib] (partner 0.02 µM) was tested. Which relative viability (PC-14; first compound 0.08 µM) did it give?
Its relative viability is 0.833.

What about the relative viability (PC-14; first compound 0.253 µM) of the same compound?
The relative viability was 0.752.

What about the relative viability (PC-14; first compound 0.8 µM) of the same compound?
Its relative viability is 0.733.

What about the relative viability (PC-14; first compound 2.53 µM) of the same compound?
The relative viability was 0.735.

What about the relative viability (NCI-H1915; first compound 0.08 µM) of the same compound?
Its relative viability is 0.325.

And the relative viability (NCI-H1915; first compound 0.253 µM)?
Its relative viability is 0.313.

And the relative viability (NCI-H1915; first compound 0.8 µM)?
The relative viability was 0.347.

What about the relative viability (NCI-H1915; first compound 2.53 µM) of the same compound?
Its relative viability is 0.296.

And the relative viability (NCI-H647; first compound 0.08 µM)?
Its relative viability is 0.452.

And the relative viability (NCI-H647; first compound 0.253 µM)?
Its relative viability is 0.42.

And the relative viability (NCI-H647; first compound 0.8 µM)?
Its relative viability is 0.431.

And the relative viability (NCI-H647; first compound 2.53 µM)?
The relative viability was 0.532.

And the relative viability (NCI-H520; first compound 0.08 µM)?
The relative viability was 0.803.

What about the relative viability (NCI-H520; first compound 0.253 µM) of the same compound?
The relative viability was 0.704.

What about the relative viability (NCI-H520; first compound 0.8 µM) of the same compound?
The relative viability was 0.631.

And the relative viability (NCI-H520; first compound 2.53 µM)?
Its relative viability is 0.79.

What about the relative viability (EPLC-272H; first compound 0.08 µM) of the same compound?
Its relative viability is 0.287.

And the relative viability (EPLC-272H; first compound 0.253 µM)?
Its relative viability is 0.234.

What about the relative viability (EPLC-272H; first compound 0.8 µM) of the same compound?
The relative viability was 0.31.

What about the relative viability (EPLC-272H; first compound 2.53 µM) of the same compound?
Its relative viability is 0.312.

What about the relative viability (COR-L 105; first compound 0.08 µM) of the same compound?
The relative viability was 0.403.

And the relative viability (COR-L 105; first compound 0.253 µM)?
The relative viability was 0.411.

And the relative viability (COR-L 105; first compound 0.8 µM)?
Its relative viability is 0.482.

What about the relative viability (COR-L 105; first compound 2.53 µM) of the same compound?
The relative viability was 0.475.

What about the relative viability (H3255; first compound 0.08 µM) of the same compound?
Its relative viability is 0.659.

And the relative viability (H3255; first compound 0.253 µM)?
Its relative viability is 0.607.

And the relative viability (H3255; first compound 0.8 µM)?
The relative viability was 0.667.

What about the relative viability (H3255; first compound 2.53 µM) of the same compound?
The relative viability was 0.626.

And the relative viability (HCC-78; first compound 0.08 µM)?
Its relative viability is 0.825.

What about the relative viability (HCC-78; first compound 0.253 µM) of the same compound?
Its relative viability is 0.569.

What about the relative viability (HCC-78; first compound 0.8 µM) of the same compound?
Its relative viability is 0.665.

What about the relative viability (HCC-78; first compound 2.53 µM) of the same compound?
The relative viability was 0.652.

What about the relative viability (LC-2-ad; first compound 0.08 µM) of the same compound?
Its relative viability is 0.928.

And the relative viability (LC-2-ad; first compound 0.253 µM)?
Its relative viability is 0.858.

And the relative viability (LC-2-ad; first compound 0.8 µM)?
The relative viability was 0.913.

What about the relative viability (LC-2-ad; first compound 2.53 µM) of the same compound?
The relative viability was 0.935.

What about the relative viability (201T; first compound 0.08 µM) of the same compound?
Its relative viability is 0.714.

And the relative viability (201T; first compound 0.253 µM)?
Its relative viability is 0.714.

And the relative viability (201T; first compound 0.8 µM)?
The relative viability was 0.734.

What about the relative viability (201T; first compound 2.53 µM) of the same compound?
Its relative viability is 0.746.

What about the relative viability (HCC-827; first compound 0.08 µM) of the same compound?
Its relative viability is 0.503.

What about the relative viability (HCC-827; first compound 0.253 µM) of the same compound?
Its relative viability is 0.529.

What about the relative viability (HCC-827; first compound 0.8 µM) of the same compound?
The relative viability was 0.491.

What about the relative viability (HCC-827; first compound 2.53 µM) of the same compound?
Its relative viability is 0.548.

What about the relative viability (NCI-H23; first compound 0.08 µM) of the same compound?
The relative viability was 0.403.

What about the relative viability (NCI-H23; first compound 0.253 µM) of the same compound?
Its relative viability is 0.305.

What about the relative viability (NCI-H23; first compound 0.8 µM) of the same compound?
The relative viability was 0.349.

And the relative viability (NCI-H23; first compound 2.53 µM)?
The relative viability was 0.48.

And the relative viability (ChaGo-K-1; first compound 0.08 µM)?
Its relative viability is 0.886.

What about the relative viability (ChaGo-K-1; first compound 0.253 µM) of the same compound?
The relative viability was 0.899.

And the relative viability (ChaGo-K-1; first compound 0.8 µM)?
The relative viability was 0.888.

And the relative viability (ChaGo-K-1; first compound 2.53 µM)?
The relative viability was 0.886.

And the relative viability (NCI-H2405; first compound 0.08 µM)?
The relative viability was 0.67.

What about the relative viability (NCI-H2405; first compound 0.253 µM) of the same compound?
Its relative viability is 0.599.

What about the relative viability (NCI-H2405; first compound 0.8 µM) of the same compound?
The relative viability was 0.648.

And the relative viability (NCI-H2405; first compound 2.53 µM)?
Its relative viability is 0.657.

What about the relative viability (RERF-LC-KJ; first compound 0.08 µM) of the same compound?
The relative viability was 0.96.

What about the relative viability (RERF-LC-KJ; first compound 0.253 µM) of the same compound?
Its relative viability is 0.842.

And the relative viability (RERF-LC-KJ; first compound 0.8 µM)?
Its relative viability is 0.804.

And the relative viability (RERF-LC-KJ; first compound 2.53 µM)?
Its relative viability is 0.888.

What about the relative viability (NCI-H2347; first compound 0.08 µM) of the same compound?
The relative viability was 0.252.

And the relative viability (NCI-H2347; first compound 0.253 µM)?
Its relative viability is 0.272.

And the relative viability (NCI-H2347; first compound 0.8 µM)?
Its relative viability is 0.339.

And the relative viability (NCI-H2347; first compound 2.53 µM)?
Its relative viability is 0.287.

What about the relative viability (NCI-H661; first compound 0.08 µM) of the same compound?
Its relative viability is 0.574.

And the relative viability (NCI-H661; first compound 0.253 µM)?
Its relative viability is 0.495.

What about the relative viability (NCI-H661; first compound 0.8 µM) of the same compound?
Its relative viability is 0.589.

What about the relative viability (NCI-H661; first compound 2.53 µM) of the same compound?
The relative viability was 0.601.

What about the relative viability (NCI-H2126; first compound 0.08 µM) of the same compound?
The relative viability was 0.558.

And the relative viability (NCI-H2126; first compound 0.253 µM)?
The relative viability was 0.525.

What about the relative viability (NCI-H2126; first compound 0.8 µM) of the same compound?
The relative viability was 0.557.

What about the relative viability (NCI-H2126; first compound 2.53 µM) of the same compound?
The relative viability was 0.563.

What about the relative viability (LCLC-97TM1; first compound 0.08 µM) of the same compound?
Its relative viability is 0.217.

What about the relative viability (LCLC-97TM1; first compound 0.253 µM) of the same compound?
The relative viability was 0.213.

What about the relative viability (LCLC-97TM1; first compound 0.8 µM) of the same compound?
Its relative viability is 0.198.

What about the relative viability (LCLC-97TM1; first compound 2.53 µM) of the same compound?
The relative viability was 0.2.

And the relative viability (NCI-H650; first compound 0.08 µM)?
Its relative viability is 1.06.

And the relative viability (NCI-H650; first compound 0.253 µM)?
Its relative viability is 1.04.

And the relative viability (NCI-H650; first compound 0.8 µM)?
Its relative viability is 0.967.

What about the relative viability (NCI-H650; first compound 2.53 µM) of the same compound?
The relative viability was 0.844.

And the relative viability (NCI-H2087; first compound 0.08 µM)?
The relative viability was 0.192.

And the relative viability (NCI-H2087; first compound 0.253 µM)?
Its relative viability is 0.146.

And the relative viability (NCI-H2087; first compound 0.8 µM)?
Its relative viability is 0.246.

What about the relative viability (NCI-H2087; first compound 2.53 µM) of the same compound?
Its relative viability is 0.208.

What about the relative viability (NCI-H1666; first compound 0.08 µM) of the same compound?
Its relative viability is 0.882.

And the relative viability (NCI-H1666; first compound 0.253 µM)?
Its relative viability is 0.779.

And the relative viability (NCI-H1666; first compound 0.8 µM)?
Its relative viability is 0.821.

And the relative viability (NCI-H1666; first compound 2.53 µM)?
Its relative viability is 0.863.
